Each structure is given as a SMILES string. “Also recorded” adds a separate entry of the source.

Experimental findings from patent US20200276312A1, “Elimination of chronic pain by chronic activation of adenosine receptor type A1 in peripheral sensory neurons” (University of Rochester, priority 2019, published 2020) are described below.

Data set [1] has as its system mice with MIA-induced inflammatory chronic pain. As to the kind of experiment: von Frey mechanical sensitivity in MIA-induced inflammatory chronic pain. Format: in vivo, mouse. The following applies: for acupuncture-induced acute analgesia: agent applied at ST36 prior to each acupuncture; for acupuncture-induced RHyp (resolution of hypersensitivity): agent given with repetitive acupuncture (DPCPX, topical lidocaine at ST36; caffeine oral 0.1 mg/ml). The source says: To assess if repetitive application of acupuncture produces an extension of transient analgesia or RHyp, inflammatory chronic pain was induced by administering monosodium iodoacetate (MIA) in the hind limb knee joints of mice (FIG. 1A and FIG. 5A), in which spreading of hypersensitivity (hyperalgesia and allodynia) in the limb develops in 3 weeks and never wears off thereafter (Combe et al., 2004, Neurosci Lett 370:236-240; Ogbonna et al., 2015, Age (Dordr) 37:9792; Rahman & Dickenson, 2015, Neuroscience 295:103-116). […] Manual acupuncture, given twice a week at ST36, induced acute analgesia in weeks 2 and 3 as well. […] This delayed-onset reduction of hypersensitivity was not a result of loss of the knee arthritis pathology, as indicated by the synovial membrane hypertrophy (FIG. 5B). […] In order to identify the cell type whose A1R mediates acute analgesia and RHyp, transgenic mice with conditional deletion of A1R selectively in sensory neurons were generated (Akopian et al, 1996, Nature 379:257-262; Stirling et al., 2005, Pain 113:27-36). (FIG. 5C). […] Both acute analgesia and RHyp were absent with repetitive administration of vehicle (FIG. 5D). […] Combined, chronic activation of A1R in sensory neurons resolves sensitization state, which can be induced by repetitive acupuncture.
Mechanical sensitivity was measured using a slightly modified Semmes-Weinstein von Frey Aesthesiometer touch test. Before beginning the measurement session, animals were acclimated to the acrylic chamber (IITC Life Science, Woodland Hills, Calif.) for 60 minutes per day for two days. Baseline mechanosensitivity was measured at least twice on different days to validate the stable, low mechanosensitivity in all mice prior to pain induction administered on the day of the second measurement. The average of the two measurements was recorded as the baseline sensitivity value. Pain-induced hyper-mechanosensitivity was evaluated three weeks after the intra-articular administration of monosodium iodoacetate (MIA, Sigma-Aldrich, 60 mg/ml, 5 μl) to a knee joint. Of note, most other inflammatory pain models cannot stably sustain hypersensitivity over months. The evaluation was performed by gently applying a thin filament of 0.04 g force to the hind paw of the animals, and the rapid retraction or tapping of the foot was counted as a positive response. A total of six trials were given to a paw in one measurement session with an interval of at least 5 min between each trial. Positive responses in the all trials were recorded, and the data were represented as the percent of positive responses. Percent change in mechanosensitivity by treatments was obtained by subtracting values of percent responses before acupuncture from that after acupuncture for each animal. […] All behavioral measurements were done at the same time of the day during the 12-hour light cycle.
For acupuncture treatment, animals were placed in a restrainer with the hind leg, ipsilateral to the knee inflammation, secured and loosely stretched. An acupuncture needle (0.20 mm; DBC Spring, Lhasa OMS, Weymouth, Mass.) was gently inserted to ST36 Zusanli point (3-4 mm below and 1-2 mm lateral from the midline from the knee) at a depth of 1.5 mm,^40 then slowly rotated for 1 minute every 3-4 minutes for a 20-minute session while the mice were awake. For sham treatment, the acupuncture needle was inserted in the same way, but then untouched for 20 minutes. The animals were immediately transferred back to the chamber and acclimated for at least 15 minutes before the post-treatment mechanosensitivity measurements. In selected experiments, solution of 2-Chloro-N^6-cyclopentyladenosine (CCPA, Sigma-Aldrich, 100 μM, 5 μl) was administered to ST36 at a depth of 1.5 mm instead of acupuncture needle. 8-Cyclopentyl-1,3-dipropylxanthine (DPCPX, Sigma-Aldrich, 100 µM, 5 μl) was administered to ST36 at a depth of 1.5 mm prior to acupuncture needle insertion. […]

Data set [2] deals with mice with CFA-induced acute inflammatory pain. As to the kind of experiment: ankle circumference (swelling) in CFA model. The format is in vivo, mouse. The following applies: day five, compared to CFA-induced group that received F5-Phe gel.
For data set [3] the test system is unchanged. In words: von Frey mechanical sensitivity in CFA-induced acute inflammatory pain. Format: in vivo, mouse.
Data set [4] has as its system sciatic nerve tissue. In words: CCPA permeability into sciatic nerve in vivo. Details: species or system mouse. How it is done:
For quantification of CCPA permeability, parafilm (7×20 mm) was placed underneath of the exposed sciatic nerve which was then covered with a custom-made enclosure (6.5 mm length plastic tube, 1.5 mm inner diameter with 120° opening) to control the length of nerve exposed to the drugs. The enclosure surrounding the nerve was gently filled with 10 μl of CCPA (5 mM) alone or a mixture of CCPA and an ENT1/2 inhibitor, 6-S-[(4-Nitrophenyl)methyl]-6-thioinosine (NBMPR, Thermo Fisher, 1 mM). After 90 minutes, the nerve was washed with PBS, extracted (6 mm length), and stored at −80° C. Tissues were homogenized in methanol using FastPrep-24 5G with CoolPrep adapter (MP Biomedicals) and incubated for 12-14 hours at −20° C. After centrifuging at 12,000 g for 15 minutes, the supernatants were dried down in CentriVap concentrator and then reconstituted in 50% DMSO. In the pilot studies, it was confirmed that highest recovery rate of CCPA was obtained with homogenization in methanol, compared to that in ethanol or HEPES buffer solution followed by ultrafilteration, and recovery rate was calculated as 95.19%. The concentrations of CCPA in samples were quantified by HPLC.

Data set [5] is described as follows: in vitro release of CCPA from Fmoc-F5-Phe cation hydrogel (HPLC). The following applies: 37° C. Format: physicochemical. How it is done:
To determine the amount of CCPA released from a 1 mL hydrogel of the Fmoc-F^5-Phe cation (33.7 mM Fmoc-F^5-Phe cation, 114 mM NaCl, 0.5 mM CCPA) as a function of time, 1.5 mL of isotonic water (114 mM NaCl) was slowly added to the top of the gel to avoid disrupting the gel. This bilayer mixture was sealed in a screw top vial and placed in a 37° C. oven. Aliquots (80 μL) were removed 20 min, 40 min, 60 min, 2 h, 3 h, 4 h, 6 h, 30 h, 54 h, and 78 h after the salt water was initially layered over the gel. After removing each aliquot, the salt solution was immediately replaced with an equal volume of salt solution (80 μL, 114 mM NaCl). Aliquots were assessed by injection onto analytical HPLC instrument in order to determine the amount of CCPA that had been released. A Shimadzu 2010A HPLC instrument equipped with a Phenomenex Gemini 5 micron C18 column (250×4.6 mm) with a guard column was used to determine concentration of the CCPA released into the 1.5 mL salt solution by correlation of integrated peak area to a previously constructed CCPA concentration curve. This concentration was converted to mol of CCPA and the diffusion coefficient was determined using Equation 1. […]

As for `CCCC(=O)Nc1ncnc2c1ncn2[C@@H]1O[C@@H]2COP(=O)(O)O[C@H]2[C@H]1OC(=O)CCC` [dbcAMP, N^6,O^2-dibutyryladenosine 3,5-cyclic monophosphate], the “delay of onset of RHyp” value in data set [1] (co-delivered with CCPA by F5-Phe, submuscular at ST36) came to 3 weeks.
Consider `CCN(CC)CC(=O)Nc1c(C)cccc1C` [lidocaine], for which, in data set [1], the acupuncture-induced acute analgesia result is listed as “loss of acupuncture-induced acute analgesia” and the “acupuncture-induced RHyp (resolution of hypersensitivity)” value (“acupuncture-induced RHyp” below) is listed as “RHyp was induced”. Besides, in data set [1] (topical 5% lidocaine at ST36 without acupuncture), the hind paw sensitivity entry was “no changes in hind paw hypersensitivity; also recorded: did not modulate hind paw sensitivity”.
`CCCn1c(=O)c2[nH]c(C3CCCC3)nc2n(CCC)c1=O` [DPCPX, 8-Cyclopentyl-1,3-dipropylxanthine]: in data set [1], the acupuncture-induced acute analgesia result is recorded as “inhibited the manifestation” and the “acupuncture-induced RHyp” value is on record as “inhibited the manifestation”.
In the case of `COc1cccc(C2(O)CCCCC2CN(C)C)c1` (stereo not drawn) [tramadol], in data set [1] (repetitive systemic administration), the “acute analgesia and RHyp” value is on record as “gradual loss of acute analgesia instead of RHyp”.
As for `Cn1c(=O)c2c(ncn2C)n(C)c1=O` [caffeine], the “acupuncture-induced RHyp” value in data set [1] is reported as “abolished”.
In the case of `O=C(O)Cc1ccccc1Nc1c(Cl)cccc1Cl` [Dcf, diclofenac], the ankle circumference result in data set [2] is given as “slightly lower circumferences”. For the same compound, the mechanical sensitivity in data set [3] (from 24 h after injection over the final 13 days, 0.1 mg/mL, 10 μL) is about 80%. Further, in data set [3] (within hours of injection, versus gel lacking diclofenac), the “relative percentage of hind paw sensitivity” value is “decreased significantly”.
`OC[C@H]1O[C@@H](n2cnc3c(NC4CCCC4)nc(Cl)nc32)[C@H](O)[C@@H]1O` [CCPA, 2-Chloro-N^6-cyclopentyladenosine]: in data set [4] (CCPA 5 mM applied outside the nerve in vivo, 90 minutes), the “CCPA entry into sciatic nerve” value is listed as “found inside the sciatic nerve tissue”. In data set [1] (A1R conditional knockout (A1RcKO) mice, repetitive administration), the “response of hypersensitivity (acute analgesia, RHyp)” value is “unresponsive”. Moreover, the re-emergence of hypersensitivity result in data set [1] (WT animals, post-treatment observation period) was “never re-emerged”. For the same compound, the RHyp result in data set [1] (repetitive CCPA solution (100 μM, 5 μl) at ST36 instead of acupuncture) is “induced RHyp”. For the same compound, the “diffusion coefficient of CCPA release” value in data set [5] (1 mL gel, 33.7 mM gelator, 500 μM CCPA, 114 mM NaCl, first 200 minutes) is reported as 3.15×10^−9 m^2 min^−1. The “duration of continuous release from F5-Phe hydrogel” value in data set [5] (CCPA 500 μM) came to 15 days.
For the compound `O=[N+]([O-])c1ccc(CSc2ncnc3c2ncn3[C@@H]2O[C@H](CO)[C@@H](O)[C@H]2O)cc1` [NBMPR, 6-S-[(4-Nitrophenyl)methyl]-6-thioinosine], the “effect on CCPA entry into sciatic nerve” value in data set [4] (NBMPR 1 mM mixed with CCPA 5 mM) is given as “reduced the CCPA entry”.
